In the CheMixHub drug solubility set:

Assay: xn = mol fraction of the nth substance listed, in the solute-free solvent

OCCN(CCO)c1nc(N2CCCCC2)c2nc(N(CCO)CCO)nc(N3CCCCC3)c2n1 + CO + O
solubility (g/100 g solution)
Conditions | 293.15 K | 298.15 K | 303.15 K | 308.15 K | 313.15 K | 318.15 K | 323.15 K | 328.15 K
x2 = 0.3 | 0.0465 | 0.0712 | 0.121 | 0.178 | 0.281 | 0.39 | 0.543 | 0.757
x2 = 0.4 | 0.197 | 0.312 | 0.48 | 0.676 | 1.01 | 1.48 | 2.27 | 3.26
x2 = 0.5 | 0.513 | 0.826 | 1.16 | 1.64 | 2.54 | 3.82 | 6.13 | 9.01
x2 = 0.6 | 1.12 | 1.6 | 2.21 | 3.21 | 4.77 | 7.29 | 11.6 | 18
x2 = 0.7 | 1.8 | 2.43 | 3.45 | 5.11 | 7.41 | 11.5 | 17.4 | 26.3
x2 = 0.8 | 2.43 | 3.31 | 4.57 | 6.51 | 9.53 | 14.1 | 20.9 | 29.2
x2 = 0.9 | 2.81 | 3.85 | 5.46 | 7.53 | 10.9 | 15.8 | 22.7 | 31.9
